What was measured:
[1] = Hemolysis assay (endosomal escape ability of LNPs); format: cell-based; details: pH 7.4; LNPs formulated with the lipid
Method: (§1) The formulation was kept at 4° C. until used in the luciferase expression assay to evaluate LNP's potency, and for toxicity using LDH assay in the HeLa and HEK293 cells. LNPs were used in the TNS assay to determine the experimental (apparent) pKa of the ionizable lipid. Hemolysis assay was used to determine the indirect endosomal escape (EE) capability of the LNPs. LNPs were evaluated in vivo for luciferase expression 6 h and 24 h post-dose in mice through i.m. injection at […]. Mice were sacrificed at the end point and then organs were harvested for ex-vivo imaging.
FIG. 6 illustrates endosomal escape ability of LNPs formulated using the ionizable lipids using a hemolysis assay.

Hek 293 FT cells = assay: LDH toxicity assay; format: cell-based; details: two separate batches
Method: GILP-133 was tested in an assay to measure the level of lactate dehydrogenase (LDH), also known as lactic acid dehydrogenase. The LDH assay protocol is based on an enzymatic coupling reaction: LDH released from the cell oxidizes lactate to generate NADH, which then reacts with WST to generate a yellow color. The intensity of the generated color correlates directly with the number of lysed cells. This gives an indication of cytotoxicity, looking at the % of viable cells remaining. In this testing, Hek 293 FT cells were used 10 uL 1% Triton was added to positive control wells and incubated for 5 min. 50 uL cell culture medium was transferred to black 96-well plate. 50 uL LDH assay solution is added and incubated for 10 min at room temperature. Subsequently 50 ul stop solution was added and fluorescence intensity was read using a microplate reader.

mice = assay: Animal luciferase expression study, intramuscular injection, IVIS imaging; format: in vivo; details: i.m., 5 μg of mRNA per mouse, organs at 24 h, compared to all GIL-133 formulations
Method: as §1
These samples were injected to mice through intramuscular injection at the leg site at a dose of 5 μg of mRNA per mouse. Compositions with control LNP of FIG. 7 were used as positive control. At 6 h and 24 h post injection, the mice were subjected to IVIS imaging system to take the whole-body image. […] The same trend was found in the whole-body imaging results.
At 24 h, the mice were sacrificed, and the main organs include heart, liver, spleen, lung, kidneys, muscle, dLNs and ndLNs were collected and imaged. […] All results are shown in 11A, 11B, 11C, 11D, and 11E.

CCCCCCCCC(CCCCCC)C(=O)OCCCCCCCN(C)CCCN(C)CCCCCCCOC(=O)C(CCCCCC)CCCCCCCC (centres unmarked) [GILP-124, (propane-1,3-diylbis(methylazanediyl))bis(heptane-7,1-diyl)bis(2-hexyldecanoate)]
hemolysis at neutral pH [1]: negligible hemolysis

CCCCCCCCC(CCCCCC)C(=O)OCCCCCCCN(C)[C@@H]1CCCC[C@H]1N(C)CCCCCCCOC(=O)C(CCCCCC)CCCCCCCC (stereo partly drawn) [GILP-133, (((1R,2S)-cyclohexane-1,2-diyl)bis(methylazanediyl))bis(heptane-7,1-diyl)bis(2-hexyldecanoate)]
% cell viability compared to control cationic lipid of FIG. 7 (Hek 293 FT cells): equivalent % cell viability

CCCCCCCCCCCOC(=O)CCCCCN(CCO)CCCCCCCC(=O)OC(CCCCCCCC)CCCCCCCC [positive control, heptadecan-9-yl 8-[2-hydroxyethyl-(6-oxo-6-undecoxyhexyl)amino]octanoate]
luciferase expression in ndLNs (mice): higher level of luciferase expression
luciferase expression in spleen (mice): higher level of luciferase expression

CCCCCCCCC(CCCCCC)C(=O)OCCCCCCCN(CC)CCCN(CC)CCCCCCCOC(=O)C(CCCCCC)CCCCCCCC (centres unmarked) [GILP-126, (propane-1,3-diylbis(ethylazanediyl))bis(heptane-7,1-diyl)bis(2-hexyldecanoate)]
hemolysis at neutral pH [1]: negligible hemolysis
